# Results as given in patent publication US11155580B2, “Modified proteins and methods of use thereof” (YALE UNIVERSITY, priority 2013, dated 2021).
# Entries after “also recorded” stand apart in the source; their conditions may differ. Where a SMILES comes first, the peptide text is derived from it. Where no end group is shown, it is not given here. The star is where a group is joined. X1 = CCN(CC)c1ccc2c(-c3ccc(S(=O)(=O)*)cc3S(=O)(=O)[O-])c3ccc(=[N+](CC)CC)cc-3oc2c1; rhodamine = not defined here
# Tests used:
# HeLa cells [1] = experiment: HPLC analysis of cytosolic extracts prepared with streptolysin O; assay type: cell-based; conditions: HeLa cells treated with rhodamine labeled molecule
# Experimental: To generate cytosolic extracts, HeLa cells were treated with streptolysin O (SLO), a well characterized bacterial toxin that creates pores in the plasma membranes of target cells (Walev et al., 2002, FASEB 16:237-239). […] Moreover, when the toxin is added to cultured cells at 4° C. and washed with PBS before raising the temperature to 37° C., pores are created only in the plasma membrane and the release of ER, golgi, or endolysosomal contents are avoided (Androlewicz et al., 1993, Proc Natl Acad Sci USA 90:9130-9134).
# First, selective release of the cytoplasmic contents of HeLa cells using the published procedures was verified. HeLa cells were treated with 20 μg/mL SLO in PBS containing 5 mM DTT (20 min, 4° C.), washed (three PBS washes, 150 μL each), resuspended in PBS, and incubated at 37° C. for 15 min, after which 1.5 μM propidium iodide (PI), a marker of permeabilized cell membranes, was added.
# cathepsin L = cathepsin L (Homo sapiens, UniProt P07711); experiment: Resistance to acid proteases: cathepsin L; assay type: in vitro ADME; conditions: 50 pmol, 30 min, 37° C., pH 5
# Experimental: (§1) 50 pmol aPPR, 5.2R, 5.3R, ZF5.3R, TatR (SEQ ID NO:67), or Arg8R (SEQ ID NO:68) were incubated with 5 pg cathepsin B, D, or L for 30 min at 37° C. in 10 μL of 20 mM sodium phosphate buffer (pH 5) containing 150 mM NaCl. At the end of the incubation, the reaction was stopped by adding 40 μL of a solution containing a 84:15:1 ratio of water:EtOH:TFA before analysis by HPLC.
# cathepsin B = cathepsin B (Homo sapiens, UniProt P07858); experiment: Resistance to acid proteases: cathepsin B; assay type: in vitro ADME; conditions: 50 pmol, 30 min, 37° C., pH 5
# Experimental: as §1
# HeLa cells [2] = experiment: Effects of endocytosis inhibitors on cell uptake, confocal microscopy; assay type: cell-based; conditions: 1 μM rhodamine labeled, 30 min, 37° C.; for effect of EIPA on uptake: 50 μM EIPA; for effect of dynasore on uptake: 80 μM dynasore; for effect of MβCD on uptake: 5 mM MβCD
# Experimental: HeLa cells grown for 24 h in glass bottom plates were incubated with HKR buffer, or HKR buffer containing 80 μM dynasore, 50 μM N-ethyl-isopropyl-amiloride, or 5 mM methyl-β-cyclodextrin for 30 min at 37° C. prior to the addition of 1 μM rhodamine-labeled miniature protein or peptide (Tat (SEQ ID NO:67) and Arg8 (SEQ ID NO:68)). The cells were washed twice with DMEM, the nuclei labeled with Hoescht, and images acquired as described above for colocalization experiments.
# HeLa cells [3] = experiment: Colocalization with Alexa-488-transferrin (Tf488), live cell confocal microscopy; assay type: cell-based; conditions: 1 μM, 30 min
# Experimental: To examine the colocalization of rhodamine labeled miniature proteins or peptides with Alexa-488-transferrin (Tf488), HeLa cells were plated (200 μl, 10^4 cells/well, 96 well glass bottom plates, Matrical) the day prior to experiments. The media was replaced with 150 μL Hepes-Krebs-Ringer's (HKR) buffer (140 mM NaCl, 2 mM KCl, 1 mM CaCl2, 1 mM MgCl2, 10 mM Hepes pH 7.4) containing 1 μM miniature protein or 25 nM Alexa-488-transferrin (Molecular Probes) and the cells incubated at 37° C. for 30 min. The cells were then rinsed twice with 200 μL, HKR buffer and nuclei were labeled by overlaying 200 μL HKR containing 300 nM Hoechst 33342 (Molecular Probes Cat. # H3570) for 5 minutes. Images of cells were acquired using a PerkinElmer LiveView spinning disk confocal microscope fitted with a 60×1.2 NA objective. Colocalization with Rab-GFP fusions was examined in an analogous way using HeLa cells transfected with the appropriate expression plasmid.
# Colocalization between rhodamine and fluorescein labeled miniature proteins and peptides, or between rhodamine labeled miniature proteins and markers of endocytosis was completed using confocal microscopy. Live cell confocal microscopy was conducted using a PerkinElmer LiveView spinning disk confocal microscope fitted with heated microscope enclosure (maintained at 37° C.), a 60×1.2 NA objective, laser illumination, a Nipkow CSU-1× spinning disk, and a Hammamatsu CS9100 EMCCD camera operated using Velocity software. Alexafluor-488-transferrin was detected using a 488 nm laser and a 520 nm long pass filter; tetraethylrhodamine and Alexafluor-546-transferrin were detected using a 546 nm laser line and a 580 nm long pass filter, Hoescht 33342 was detected using a 405 nm laser line and a 450 nm long pass filter. Images were processed for presentation by using the ‘subtract background’ option and linear contrast adjustments in Image J. All adjustments were applied uniformly to the entire image. Colocalization analysis was performed using the JACOP plugin (Bolte and Cordelières, 2006), available on the ImageJ website. The fraction of rhodamine signal overlapping with EGFP signal (R E G) was calculated using Mander's coefficient and automatic thresholding. Pearson's correlation coefficient (R) was also obtained using the JACOP plugin.
# HeLa cells [4] = experiment: Peptide degradation in HeLa cells, HPLC of whole cell lysates; assay type: in vitro ADME; conditions: 1 μM, 30 min, RIPA lysate
# Experimental: Approximately 200,000 HeLa cells were treated with rhodamine labeled cationic miniature proteins and peptides as described for experiments using flow cytometry to measure peptide uptake. These cells were pelleted in 96 well microtitre plates (300 g, 3 min) and lysed in 40 μL RIPA buffer (150 mM NaCl, 50 mM Tris pH 7.4, 50 mM EDTA pH 7.4, 0.1% SDS, 1% Triton X-100) on ice for 30 min. The insoluble material was cleared from the cell lysate via centrifugation (10,000 g, 10 min) and 20 μL of the supernatant was diluted into 400 μL of 15% CH3CN in water. These samples were analyzed via reverse phase HPLC (Shimadzu Instruments) fitted with a fluorescence detector and a C18 column (Poroshell 120 SB-C18, 2.7 μm, 100 mm×3 mm ID, Agilent).
# cathepsin D = cathepsin D (Homo sapiens, UniProt P07339); experiment: Resistance to acid proteases: cathepsin D; assay type: in vitro ADME; conditions: 50 pmol, 30 min, 37° C., pH 5
# Experimental: as §1
# [5] = Circular dichroism thermal melt; assay type: physicochemical; conditions: unlabeled, 25 μM in PBS
# Experimental: FIG. 8, comprising FIGS. 8A-8C, depicts the results of circular dichroism (CD) analysis of miniature proteins studied herein. (FIG. 8A) Wavelength dependent CD spectra of miniature proteins at 25 μM concentration in PBS at 37° C. (FIG. 8B) Temperature dependent ellipticity at 222 nm of miniature proteins at 25 μM.
# CD spectra of unlabeled aPP-based miniature were recorded from samples containing 25 μM peptide in PBS as described (Luedtke et al., 2007, Nat Chem Biol. 3:779-784). CD spectra of ZF and ZF5.3 in the presence and absence of Zn2+ were recorded from solutions of peptide (12.5-25 μM) dissolved in 10 mM argon-purged Tris-HCL (pH 8.0) in the presence or absence of 0.5 mM dithiothreitol and 2 eq. ZnC12. Samples were incubated for 30 min at RT and analyzed on a Jasco J-810-150S spectropolarimeter. Final plots show background-normalized averages of six scans.
# GR★-GFP = experiment: GIGT, transient transfection with GR★-GFP; assay type: cell-based; conditions: 500 nM, 30 min, HeLa cells
# Experimental: Cells were plated (10,000 cells/well) onto 96-well glass bottom plates (Matrical Bioscience, #MGB096-1-2-LG-L) in full DMEM (HeLa) or full McCoy's 5A (U205) media and allowed to adhere overnight. […] Cells were allowed to transfect for 6 h at 37° C. under 5% CO2 before removing transfection media and replenishing growth media. Image analysis of GIGT using Cell Profiler. Cell image files were loaded into a customizable CellProfiler7 ‘pipeline’ as individual GFP (green) and Hoechst (blue) channels, and converted to grayscale. Nuclei were identified and segmented from the gray Hoechst channel based on Otsu three-class thresholding, with pixels in the middle intensity class assigned to background. Clumped objects were individually distinguished using ‘Laplacian of Gaussian’ modeling and separated by ‘shape’. […] The ratio of mean intensities of the nuclear region divided by the cytosolic region of the GFP image was measured for every cell examined, and 40-80 transfected cells from 15-25 images were acquired for each treatment.
# Cells were allowed to incubate in the presence of ligand for 30 min at 37° C. under 5% CO2. […] Fluorescence illumination was initiated using an EXFO X-cite Series 120 Hg arc lamp. […] Fluorescence intensities of individual cells were quantified using the image analysis algorithm CellProfiler.
# [6] = system: HeLa cervical cancer cells; experiment: Internal peptide concentration after co-administration with ZF 5.3; assay type: cell-based
# Experimental: HeLa cervical cancer cells were incubated in the presence of either 500 nM ZF 4.3-Rhodamine or 500 nM ZF 4.3-Rhodamine with 1 μM ZF 5.3 for 30 minutes. After incubation, external peptide was removed and internal peptide concentration was measured using a microscope with advanced correlation and detection hardware. In the absence of ZF 5.3, only a small amount of ZF 4.3 enters the cell interior, corresponding to ˜8% of the ZF 4.3 concentration added (FIG. 19). In the presence of ZF 5.3, the amount of ZF 4.3 that enters the cell interior quadrupled, raising to ˜35% of the concentration added (FIG. 19).
# [7] = Trafficking of a biologically active peptide (NBD) into the cytosol; assay type: cell-based; conditions: 500 nM NBD fusions
# Experimental: Cells were incubated in the presence of either 500 nM ZF 5.3-NBD or Antp-NBD or Arg8-NBD (FIG. 20). After incubation, internal peptide concentration was measured.
# Sequence of cathepsin D (P07339 65-412, species assumed): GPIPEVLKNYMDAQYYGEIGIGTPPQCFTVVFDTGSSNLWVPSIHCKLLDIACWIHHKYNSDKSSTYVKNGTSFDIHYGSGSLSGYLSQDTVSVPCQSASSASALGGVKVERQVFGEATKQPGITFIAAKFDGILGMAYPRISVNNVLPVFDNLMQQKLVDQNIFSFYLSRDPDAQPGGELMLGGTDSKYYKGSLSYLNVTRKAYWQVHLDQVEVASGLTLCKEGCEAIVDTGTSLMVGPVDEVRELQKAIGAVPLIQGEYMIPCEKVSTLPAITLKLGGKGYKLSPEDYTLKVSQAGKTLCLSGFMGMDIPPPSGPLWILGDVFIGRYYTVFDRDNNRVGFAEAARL
# Sequence of cathepsin L (P07711 114-333, species assumed): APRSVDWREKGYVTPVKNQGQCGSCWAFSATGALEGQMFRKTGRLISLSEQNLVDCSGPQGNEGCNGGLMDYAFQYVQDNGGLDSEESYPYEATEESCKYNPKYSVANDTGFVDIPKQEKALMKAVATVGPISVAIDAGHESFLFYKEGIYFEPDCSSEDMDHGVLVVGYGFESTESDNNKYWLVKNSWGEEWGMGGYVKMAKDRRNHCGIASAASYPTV
molecule,measurement,setting,value
CC[C@H](C)[C@H](NC(=O)[C@H](CC(C)C)NC(=O)[C@H](CC(=O)O)NC(=O)[C@H](CCCNC(=N)N)NC(=O)[C@@H](NC(=O)[C@@H]1CCCN1C(=O)[C@H](C)NC(=O)[C@H](CC(=O)O)NC(=O)[C@H](CC(=O)O)NC(=O)CNC(=O)[C@@H]1CCCN1C(=O)[C@H](Cc1ccc(O)cc1)NC(=O)[C@@H](NC(=O)[C@@H]1CCCN1C(=O)[C@H](CCC(N)=O)NC(=O)[C@H](CO)NC(=O)[C@@H]1CCCN1C(=O)CNC(=O)[C@@H](N)CCCCNS(=O)(=O)c1ccc(-c2c3ccc(=[N+](CC)CC)cc-3oc3cc(N(CC)CC)ccc23)c(S(=O)(=O)[O-])c1)[C@@H](C)O)C(C)C)C(=O)N[C@@H](CCCNC(=N)N)C(=O)N[C@@H](Cc1ccccc1)C(=O)N[C@@H](Cc1ccc(O)cc1)C(=O)N[C@@H](CCCNC(=N)N)C(=O)N[C@@H](CC(=O)O)C(=O)N[C@@H](CC(C)C)C(=O)N[C@@H](CCCNC(=N)N)C(=O)N[C@@H](CCCNC(=N)N)C(=O)N[C@@H](Cc1ccc(O)cc1)C(=O)N[C@@H](CC(C)C)C(=O)N[C@@H](CC(N)=O)C(=O)N[C@H](C(=O)N[C@H](C(=O)N[C@H](C(=O)N[C@@H](CCCNC(=N)N)C(=O)N[C@@H](Cc1c[nH]cn1)C(=O)N[C@@H](CCCNC(=N)N)C(=O)N[C@@H](Cc1ccc(O)cc1)C(N)=O)[C@@H](C)O)C(C)C)C(C)C [5.3R] (H-K(X1)GPSQPTYPGDDAPVRDLIRFYRDLRRYLNVVTRHRY-NH2),material found in SLO cytoplasmic extracts (HPLC),HeLa cells [1],presence of intact 5.3R; also recorded: a single peak with the same retention time as the starting material
same,degradation by cathepsin L (HPLC),cathepsin L,traces identical to the parent peptide; also recorded: to a smaller extent
same,degradation by cathepsin B (HPLC),cathepsin B,several additional small peaks
same,effect of EIPA on uptake,HeLa cells [2],dramatically reduced the uptake
same,effect of dynasore on uptake,HeLa cells [2],completely blocked the uptake
same,effect of MβCD on uptake,HeLa cells [2],completely blocked the uptake
same,intracellular red fluorescent signal,HeLa cells [3],red fluorescent puncta throughout the cytosol
same,degradation during incubation with HeLa cells (HPLC of whole cell lysates),HeLa cells [4],minimal to no cleavage; also recorded: virtually identical to control samples
same,degradation by cathepsin D (HPLC),cathepsin D,cleaved by cathepsin D
same,metabolised at 0.5 h,"cathepsin D; isolated enzyme cathepsin other, read-out: disappearance after incubation with cathepsin D",~50%
GPSQPTYPGDDAPVRDLRRFYRDLRRYLNVVTRHRYC^acetyl-NH2 (GPSQPTYPGDDAPVRDLRRFYRDLRRYLNVVTRHRYC(Ac)-NH2) [6.3],Tm (temperature dependent ellipticity at 222 nm),[5],33 °C
K^DexGPSQPTYPGDDAPVRDLIRPYRDLQRPLRVVTRHRY (K(dexamethasone)GPSQPTYPGDDAPVRDLIRPYRDLQRPLRVVTRHRY-NH2) [5.2-P2Dex],"translocation ratio (TR), GR★-GFP",GR★-GFP,1.35±0.11
K^DexGPSQPTYPGDDAPVRDLIRPYRDLRRPLNVVTRHRY (K(dexamethasone)GPSQPTYPGDDAPVRDLIRPYRDLRRPLNVVTRHRY-NH2) [5.3-P2Dex],"translocation ratio (TR), GR★-GFP",GR★-GFP,1.64±0.27
K^RhodGRKKRRQRRRPPQY-NH2 (K(rhodamine)GRKKRRQRRRPPQY-NH2; reading uncertain; also: printed as K^RhodGRKKRRQRRRPPQY-NH2) [TatR],material found in SLO cytoplasmic extracts (HPLC),HeLa cells [1],retention times distinct from the starting material; also recorded: little or no material with the same retention time as the starting material
same,degradation by cathepsin L (HPLC),cathepsin L,little or no degradation
same,degradation by cathepsin B (HPLC),cathepsin B,little or no degradation
same,effect of EIPA on uptake,HeLa cells [2],dramatically reduced the uptake
same,effect of dynasore on uptake,HeLa cells [2],completely blocked the uptake
same,effect of MβCD on uptake,HeLa cells [2],completely blocked the uptake
same,intracellular red fluorescent signal,HeLa cells [3],red fluorescent puncta throughout the cytosol
same,degradation during incubation with HeLa cells (HPLC of whole cell lysates),HeLa cells [4],numerous additional peaks
same,degradation by cathepsin D (HPLC),cathepsin D,little or no degradation
RRRRRRRR [Arg8],intracellular concentration on co-incubation with ZF 5.3,[6],did not significantly increase
WYSCNVCGKAFVLSRHLNRHLRVHRRAT [ZF5.3],trafficking a biologically active peptide into the cytosol,[7],superior to both Antp and Arg8
